Reference: ChEMBL document CHEMBL3885881, “DrugMatrix”

Organism: Rattus norvegicus
Experiment: DrugMatrix - Regimen: Daily Repeat
Format: toxicity, organism-based, Sprague-Dawley
Set-up: regimen Daily Repeat, gender Male, age 6-8 weeks
Settings: in vivo, po, route oral GAVAGE, […]; for ABSOLUTE BASOPHIL / ABSOLUTE EOSINOPHIL / ABSOLUTE LYMPHOCYTE / ABSOLUTE MONOCYTE / ABSOLUTE SEGMENTED NEUTROPHIL / BASOPHIL / EOSINOPHIL / ERYTHROCYTE COUNT / HEMATOCRIT / HEMOGLOBIN / LEUKOCYTE COUNT / LYMPHOCYTE / MEAN CORPUSCULAR HEMOGLOBIN / MEAN CORPUSCULAR HEMOGLOBIN CONCENTRATION / MEAN CORPUSCULAR VOLUME / MONOCYTE / NEUTROPHIL / NUCLEATED RED BLOOD CELLS / PLATELET COUNT: tissue Blood; for ALANINE AMINOTRANSFERASE / ALBUMIN / ALKALINE PHOSPHATASE / ASPARTATE AMINOTRANSFERASE / BLOOD UREA NITROGEN / CARBON DIOXIDE / CHLORIDE / CHOLESTEROL / CREATINE PHOSPHOKINASE / CREATININE / GLUCOSE / LACTATE DEHYDROGENASE / LIPASE / PHOSPHORUS / POTASSIUM / SODIUM / TOTAL BILIRUBIN / TOTAL PROTEIN / URIC ACID: tissue Plasma
[1] = 0 mg/kg, 72 h, dose level Control, time 3 day
[2] = 0 mg/kg, 120 h, dose level Control, time 5 day
[3] = 59 mg/kg, 72 h, dose level Low, time 3 day
[4] = 59 mg/kg, 120 h, dose level Low, time 5 day

SMILES: Oc1c(Cl)cc(Cl)cc1Sc1cc(Cl)cc(Cl)c1O [BITHIONOL]
- ABSOLUTE BASOPHIL [1]: 0 CELLS/uL
- ABSOLUTE EOSINOPHIL [1]: 33 CELLS/uL
- ABSOLUTE LYMPHOCYTE [1]: 9048.5 CELLS/uL
- ABSOLUTE MONOCYTE [1]: 80.17 CELLS/uL
- ABSOLUTE SEGMENTED NEUTROPHIL [1]: 1521.67 CELLS/uL
- BASOPHIL [1]: 0%
- EOSINOPHIL [1]: 0.17%
- ERYTHROCYTE COUNT [1]: 5.46 x10E6/uL
- HEMATOCRIT [1]: 32.87%
- HEMOGLOBIN [1]: 12.95 G/DL
- LEUKOCYTE COUNT [1]: 10.68 x10E3/uL
- LYMPHOCYTE [1]: 86.67%
- MEAN CORPUSCULAR HEMOGLOBIN [1]: 23.72 pg
- MEAN CORPUSCULAR HEMOGLOBIN CONCENTRATION [1]: 39.4 G/DL
- MEAN CORPUSCULAR VOLUME [1]: 60.18 fL
- MONOCYTE [1]: 0.83%
- NEUTROPHIL [1]: 12.33%
- NUCLEATED RED BLOOD CELLS [1]: 0 /100WBC
- PLATELET COUNT [1]: 1211.33 x10E3/uL
- ALANINE AMINOTRANSFERASE [1]: 76.67 u/L
- ALBUMIN [1]: 3.93 G/DL
- ALKALINE PHOSPHATASE [1]: 317.17 u/L
- ASPARTATE AMINOTRANSFERASE [1]: 81.17 u/L
- BLOOD UREA NITROGEN [1]: 12.33 mg/dL
- CARBON DIOXIDE [1]: 31.17 mmol/L
- CHLORIDE [1]: 98.33 MEQ/L
- CHOLESTEROL [1]: 67.17 mg/dL
- CREATINE PHOSPHOKINASE [1]: 312.33 u/L
- CREATININE [1]: 0.19 mg/dL
- GLUCOSE [1]: 165.5 mg/dL
- LACTATE DEHYDROGENASE [1]: 94.5 u/L
- LIPASE [1]: 9.83 u/L
- PHOSPHORUS [1]: 10.1 mg/dL
- POTASSIUM [1]: 5.16 MEQ/L
- SODIUM [1]: 143.02 MEQ/L
- TOTAL BILIRUBIN [1]: 0.2 mg/dL
- TOTAL PROTEIN [1]: 5.88 G/DL
- URIC ACID [1]: 0.68 mg/dL
- ABSOLUTE BASOPHIL [2]: 0 CELLS/uL
- ABSOLUTE EOSINOPHIL [2]: 14.67 CELLS/uL
- ABSOLUTE LYMPHOCYTE [2]: 9629.83 CELLS/uL
- ABSOLUTE MONOCYTE [2]: 72.5 CELLS/uL
- ABSOLUTE SEGMENTED NEUTROPHIL [2]: 1049.67 CELLS/uL
- BASOPHIL [2]: 0%
- EOSINOPHIL [2]: 0.17%
- ERYTHROCYTE COUNT [2]: 5.36 x10E6/uL
- HEMATOCRIT [2]: 33.82%
- HEMOGLOBIN [2]: 13.48 G/DL
- LEUKOCYTE COUNT [2]: 10.77 x10E3/uL
- LYMPHOCYTE [2]: 90.17%
- MEAN CORPUSCULAR HEMOGLOBIN [2]: 25.28 pg
- MEAN CORPUSCULAR HEMOGLOBIN CONCENTRATION [2]: 39.92 G/DL
- MEAN CORPUSCULAR VOLUME [2]: 63.3 fL
- MONOCYTE [2]: 0.67%
- NEUTROPHIL [2]: 9%
- NUCLEATED RED BLOOD CELLS [2]: 0.17 /100WBC
- PLATELET COUNT [2]: 1275.33 x10E3/uL
- ALANINE AMINOTRANSFERASE [2]: 93.67 u/L
- ALBUMIN [2]: 4.17 G/DL
- ALKALINE PHOSPHATASE [2]: 402.5 u/L
- ASPARTATE AMINOTRANSFERASE [2]: 122.83 u/L
- BLOOD UREA NITROGEN [2]: 14.75 mg/dL
- CARBON DIOXIDE [2]: 26.4 mmol/L
- CHLORIDE [2]: 98.5 MEQ/L
- CHOLESTEROL [2]: 57.5 mg/dL
- CREATINE PHOSPHOKINASE [2]: 305.17 u/L
- CREATININE [2]: 0.21 mg/dL
- GLUCOSE [2]: 142 mg/dL
- LACTATE DEHYDROGENASE [2]: 83.5 u/L
- LIPASE [2]: 85.83 u/L
- PHOSPHORUS [2]: 8.18 mg/dL
- POTASSIUM [2]: 5.46 MEQ/L
- SODIUM [2]: 144 MEQ/L
- TOTAL BILIRUBIN [2]: 0.25 mg/dL
- TOTAL PROTEIN [2]: 5.63 G/DL
- URIC ACID [2]: 0.8 mg/dL
- ABSOLUTE BASOPHIL [3]: 0 CELLS/uL
- ABSOLUTE EOSINOPHIL [3]: 0 CELLS/uL
- ABSOLUTE LYMPHOCYTE [3]: 6654 CELLS/uL
- ABSOLUTE MONOCYTE [3]: 41.33 CELLS/uL
- ABSOLUTE SEGMENTED NEUTROPHIL [3]: 671.33 CELLS/uL
- BASOPHIL [3]: 0%
- EOSINOPHIL [3]: 0%
- ERYTHROCYTE COUNT [3]: 5.26 x10E6/uL
- HEMATOCRIT [3]: 32.77%
- HEMOGLOBIN [3]: 12.93 G/DL
- LEUKOCYTE COUNT [3]: 7.37 x10E3/uL
- LYMPHOCYTE [3]: 90%
- MEAN CORPUSCULAR HEMOGLOBIN [3]: 24.57 pg
- MEAN CORPUSCULAR HEMOGLOBIN CONCENTRATION [3]: 39.5 G/DL
- MEAN CORPUSCULAR VOLUME [3]: 62.3 fL
- MONOCYTE [3]: 0.67%
- NEUTROPHIL [3]: 9.33%
- NUCLEATED RED BLOOD CELLS [3]: 0 /100WBC
- PLATELET COUNT [3]: 1231 x10E3/uL
- ALANINE AMINOTRANSFERASE [3]: 78.67 u/L
- ALBUMIN [3]: 4.07 G/DL
- ALKALINE PHOSPHATASE [3]: 362 u/L
- ASPARTATE AMINOTRANSFERASE [3]: 89.33 u/L
- BLOOD UREA NITROGEN [3]: 13.67 mg/dL
- CARBON DIOXIDE [3]: 31.67 mmol/L
- CHLORIDE [3]: 98.67 MEQ/L
- CHOLESTEROL [3]: 74.33 mg/dL
- CREATINE PHOSPHOKINASE [3]: 365.67 u/L
- CREATININE [3]: 0.18 mg/dL
- GLUCOSE [3]: 157.67 mg/dL
- LACTATE DEHYDROGENASE [3]: 123.67 u/L
- LIPASE [3]: 10 u/L
- PHOSPHORUS [3]: 11.23 mg/dL
- POTASSIUM [3]: 6.04 MEQ/L
- SODIUM [3]: 142.9 MEQ/L
- TOTAL BILIRUBIN [3]: 0.17 mg/dL
- TOTAL PROTEIN [3]: 5.97 G/DL
- URIC ACID [3]: 0.6 mg/dL
- ABSOLUTE BASOPHIL [4]: 0 CELLS/uL
- ABSOLUTE EOSINOPHIL [4]: 30 CELLS/uL
- ABSOLUTE LYMPHOCYTE [4]: 8041.67 CELLS/uL
- ABSOLUTE MONOCYTE [4]: 31.33 CELLS/uL
- ABSOLUTE SEGMENTED NEUTROPHIL [4]: 663.67 CELLS/uL
- BASOPHIL [4]: 0%
- EOSINOPHIL [4]: 0.33%
- ERYTHROCYTE COUNT [4]: 5.55 x10E6/uL
- HEMATOCRIT [4]: 33.6%
- HEMOGLOBIN [4]: 13.2 G/DL
- LEUKOCYTE COUNT [4]: 8.77 x10E3/uL
- LYMPHOCYTE [4]: 91.67%
- MEAN CORPUSCULAR HEMOGLOBIN [4]: 23.8 pg
- MEAN CORPUSCULAR HEMOGLOBIN CONCENTRATION [4]: 39.27 G/DL
- MEAN CORPUSCULAR VOLUME [4]: 60.53 fL
- MONOCYTE [4]: 0.33%
- NEUTROPHIL [4]: 7.67%
- NUCLEATED RED BLOOD CELLS [4]: 0 /100WBC
- PLATELET COUNT [4]: 933.33 x10E3/uL
- ALANINE AMINOTRANSFERASE [4]: 82.33 u/L
- ALBUMIN [4]: 4.23 G/DL
- ALKALINE PHOSPHATASE [4]: 343.33 u/L
- ASPARTATE AMINOTRANSFERASE [4]: 99.67 u/L
- BLOOD UREA NITROGEN [4]: 14.67 mg/dL
- CARBON DIOXIDE [4]: 27.67 mmol/L
- CHLORIDE [4]: 102.33 MEQ/L
- CHOLESTEROL [4]: 55.67 mg/dL
- CREATINE PHOSPHOKINASE [4]: 348 u/L
- CREATININE [4]: 0.19 mg/dL
- GLUCOSE [4]: 150.67 mg/dL
- LACTATE DEHYDROGENASE [4]: 104.67 u/L
- LIPASE [4]: 19 u/L
- PHOSPHORUS [4]: 9.53 mg/dL
- POTASSIUM [4]: 5.41 MEQ/L
- SODIUM [4]: 145.97 MEQ/L
- TOTAL BILIRUBIN [4]: 0.23 mg/dL
- TOTAL PROTEIN [4]: 5.97 G/DL
- URIC ACID [4]: 0.9 mg/dL
